According to US7235548B2, “Compounds and their use as positive AMPA receptor modulators” (NeuroSearch A/S, priority 1998, dated 2007):

Tested on: NMRI mice
Test: Passive avoidance (associative memory)
Format: in vivo, mouse
Conditions: mice pre-treated before training, test after 24 hours; different concentrations; FIG. 17
Method: PURPOSE: To test the pharmacological effect of compounds on associative memory.
PRINCIPLE: A Mouse is placed in a light compartment with access to a dark compartment. If it enter the dark compartment it will receive a foot-shock (0.4 mA). After a delay (24 hours) the association to risk an unpleasant foot-shock by re-entering the dark compartment is tested.
ANIMALS: Female NMRI mice (Bomholdtgaard, DK) weighing 22–25 g were used. The mice were kept in Macrolon plastic cages with free access to food (Altromin, DK) and tap water. The mice were habituated to the laboratory for at least 3 days before testing (light on 7:00am/light off 7:00 pm).
EQUIPMENT: The passive avoidance apparatus consisted of a modular test chambers (ENV-307, MED-Associates, US). The light and the dark compartment consisted of plexiglas boxes of equal size (15×17×13 cm; width×length×height) with metal grid floors. A sliding guillotine door was located at the aperture (4×4 cm) connecting the two compartments. […]
[…]: Entry latency (sec) to re-enter the dark compartment was measured. […]
Training: One mouse is placed in the light compartment and the guillotine door to the dark compartment is opened. […] Test: After a delay (24 hours) the mouse will re-enter the light compartment and time latency to enter the dark compartment is measured with a time limit at 2 minutes. […]

`CN1CCN(S(=O)(=O)c2ccc3c(c2)S(=O)(=O)NC(C2CCCCC2)N3)CC1` (stereo not shown) [Compound 61, 3-Cyclohexyl-7-(4′-methylpiperazino)sulfonyl-1,2,3,4-tetrahydro-1,2,4-benzothiadiazine-1,1-dioxide] was tested, and the “entry latency to re-enter the dark compartment (memory)” value was “memory enhancing effect”.
